Laboratory results published in ChEMBL document CHEMBL1140871, “Diaryl-dithiolanes and -isothiazoles: COX-1/COX-2 and 5-LOX-inhibitory, *OH scavenging and anti-adhesive activities” (Bioorg Med Chem, 2009).

Key:
MONO-MAC-6 [1] = assay: Inhibition of TNF-alpha-stimulated adhesion of human MM6 cells to BAEC at 40 uM by static assay relative to control; details: MONO-MAC-6, read-out: INH
[2] = Inhibition of 5LOX in bovine polymorphonuclear leucocytes assessed as leukotriene B4 formation; format: cell-based; details: Bos taurus
[3] = target: T1, Prostaglandin G/H synthase 1 (Bos taurus, UniProt O62664)
T1 sequence (O62664 whole entry): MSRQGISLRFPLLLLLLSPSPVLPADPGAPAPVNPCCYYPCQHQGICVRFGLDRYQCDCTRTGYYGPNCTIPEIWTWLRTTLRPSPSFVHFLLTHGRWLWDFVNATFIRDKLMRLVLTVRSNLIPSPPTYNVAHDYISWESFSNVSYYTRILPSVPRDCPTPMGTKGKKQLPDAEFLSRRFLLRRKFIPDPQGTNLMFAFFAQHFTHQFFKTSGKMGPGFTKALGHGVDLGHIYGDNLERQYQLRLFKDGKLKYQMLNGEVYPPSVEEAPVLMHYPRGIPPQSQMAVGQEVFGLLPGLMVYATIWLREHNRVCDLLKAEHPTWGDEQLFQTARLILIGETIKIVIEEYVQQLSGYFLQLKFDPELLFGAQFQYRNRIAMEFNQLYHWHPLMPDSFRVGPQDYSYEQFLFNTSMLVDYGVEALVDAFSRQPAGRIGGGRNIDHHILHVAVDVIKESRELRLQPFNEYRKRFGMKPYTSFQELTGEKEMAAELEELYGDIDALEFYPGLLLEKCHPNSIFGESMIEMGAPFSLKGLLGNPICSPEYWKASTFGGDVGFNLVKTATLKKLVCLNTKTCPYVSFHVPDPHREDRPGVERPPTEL
Description: Inhibition of COX1 in bovine platelets assessed as formation of 12-hydroxyheptadecatrienoic acid by HPLC

[4] = target: T2, Prostaglandin G/H synthase 2 (Homo sapiens, UniProt P35354); assay: Inhibition of COX2 in LPS-stimulated human blood
T2 sequence (P35354 whole entry): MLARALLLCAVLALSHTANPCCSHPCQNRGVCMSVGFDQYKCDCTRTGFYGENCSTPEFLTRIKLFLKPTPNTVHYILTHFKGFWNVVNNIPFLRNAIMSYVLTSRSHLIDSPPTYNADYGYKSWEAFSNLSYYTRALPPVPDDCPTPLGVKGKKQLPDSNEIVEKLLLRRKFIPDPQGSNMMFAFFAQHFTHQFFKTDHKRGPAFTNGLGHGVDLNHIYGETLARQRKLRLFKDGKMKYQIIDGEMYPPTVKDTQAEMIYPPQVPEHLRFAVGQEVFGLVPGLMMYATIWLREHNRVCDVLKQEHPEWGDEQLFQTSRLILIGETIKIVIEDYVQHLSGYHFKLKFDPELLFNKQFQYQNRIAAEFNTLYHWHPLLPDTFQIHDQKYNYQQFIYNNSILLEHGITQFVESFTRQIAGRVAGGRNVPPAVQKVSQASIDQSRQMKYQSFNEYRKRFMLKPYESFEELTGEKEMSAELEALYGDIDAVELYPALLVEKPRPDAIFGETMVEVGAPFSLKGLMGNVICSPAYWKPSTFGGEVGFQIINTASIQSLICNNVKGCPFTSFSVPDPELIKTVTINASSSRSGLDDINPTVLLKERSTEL

MONO-MAC-6 [5] = assay: Inhibition of TNF-alpha-stimulated adhesion of human MM6 cells to BAEC at 100 uM by static assay relative to control; format: functional
Bos taurus = organism: Bos taurus; details: 10 uM
Description: Inhibition of 5LOX in bovine polymorphonuclear leucocytes assessed as leukotriene B4 formation at 10 uM

Mus musculus [6] = assay: Effect on compound 48/80-induced leukocyte recruitment in BALB/c mouse peritonitis model assessed as reduction in polymorphonuclear leucocyte count in peritoneal cavity at 50 mg/kg, ip administered 1 hr before compound 48/80 challenge; format: functional; parameters: scale not given: the % may be the effect or the level left; details: route intraperitoneal
[7] = Cytotoxicity against BALB/c mouse polymorphonuclear leukocytes assessed as cell viability after 6 hrs by trypan blue exclusion assay; details: read-out: Activity
Mus musculus [8] = assay: Reduction of CD11b protein expression on neutrophils in BALB/c mouse compound 48/80-induced peritonitis model at 50 mg/kg, ip administered 1 hr before compound 48/80 challenge; format: functional; parameters: scale not given: the % may be the effect or the level left; details: route intraperitoneal
MONO-MAC-6 [9] = assay: Inhibition of TNF-alpha-stimulated adhesion of human MM6 cells to BAEC at 30 uM by static assay relative to control; format: functional

SMILES | IC50 [2] | IC50 [3] | IC50 [4] | other results
Cc1ccc(-c2cc(C(F)(F)F)nn2-c2ccc(S(N)(=O)=O)cc2)cc1 [CELECOXIB] | – | – | – | inhibition at 40 µM (MONO-MAC-6 [1]): 85%
COc1ccc(-c2sncc2-c2ccc(Cl)cc2)cc1 | 20 µM | 0.02 µM | > 50 µM | –
Cc1ccc(-c2ssc(=S)c2-c2ccc(Cl)cc2)cc1 | > 50 µM | 0.006 µM | 50 µM | –
CS(=O)(=O)c1ccc(-c2ssc(=S)c2-c2ccccc2)cc1 | 3 µM | – | > 50 µM | inhibition at 100 µM (MONO-MAC-6 [5]): 9%
COc1ccc(-c2cnsc2-c2ccc(Cl)cc2)cc1 | 50 µM | 0.07 µM | – | –
CS(=O)(=O)c1ccc(-c2sncc2-c2ccc(F)cc2)cc1 | 10 µM | 50 µM | 9 µM | –
Cc1ccc(-c2sncc2-c2ccc(Cl)cc2)cc1 | > 50 µM | 0.2 µM | – | –
CS(=O)(=O)c1ccc(-c2ssc(=O)c2-c2ccccc2)cc1 | > 50 µM | 8 µM | 1.1 µM | inhibition (Bos taurus): 13%
O=C(O)Cc1ccccc1Nc1c(Cl)cccc1Cl [DICLOFENAC] | > 50 µM | – | – | –
Cc1ccc(-c2c(-c3ccc(Cl)cc3)ssc2=S)cc1 | 20 µM | 2 µM | > 50 µM | –
COc1ccc(-c2ssc(=S)c2-c2ccc(OC)cc2)cc1 | 10 µM | 0.03 µM | 20 µM | –
Cc1ccc(-c2c(-c3ccc(S(C)(=O)=O)cc3)ssc2=S)cc1 | 9 µM | 7 µM | 9 µM | Activity (Mus musculus [6]): 49%; viability at 6 h [7]: 94%; Activity (Mus musculus [8]): 40%; inhibition at 100 µM (MONO-MAC-6 [5]): 71%
Cc1ccc(-c2ssc(=S)c2-c2ccc(S(C)(=O)=O)cc2)cc1 | > 50 µM | 0.6 µM | > 50 µM | inhibition at 100 µM (MONO-MAC-6 [5]): 26%
CS(=O)(=O)c1ccc(-c2c(-c3ccccc3)ssc2=S)cc1 | > 50 µM | 20 µM | > 50 µM | inhibition at 100 µM (MONO-MAC-6 [5]): 38%
CS(=O)(=O)c1ccc(-c2ssc(=S)c2-c2ccc(F)cc2)cc1 | 20 µM | > 50 µM | > 50 µM | inhibition at 100 µM (MONO-MAC-6 [5]): 85%
COc1ccc(-c2sncc2-c2ccc(C)cc2)cc1 | 8 µM | 0.01 µM | > 50 µM | –
Cc1ccc(-c2cnsc2-c2ccc(Cl)cc2)cc1 | 50 µM | 0.04 µM | > 50 µM | –
Oc1ccc(-c2ssc(=S)c2-c2ccc(O)cc2)cc1 | 6 µM | 20 µM | > 50 µM | inhibition at 100 µM (MONO-MAC-6 [5]): 54%
Cc1ccc(-c2ssc(=O)c2-c2ccc(Cl)cc2)cc1 | > 50 µM | 0.02 µM | > 50 µM | –
Oc1ccc(-c2cnsc2-c2ccc(O)cc2)cc1 | > 50 µM | 1 µM | > 50 µM | –
CS(=O)(=O)c1ccc(-c2c(-c3ccccc3)ssc2=O)cc1 | > 50 µM | 8 µM | > 50 µM | –
Cc1ccc(-c2c(-c3ccc(Cl)cc3)ssc2=O)cc1 | > 50 µM | 0.2 µM | > 50 µM | –
COc1ccc(-c2cnsc2-c2ccc(OC)cc2)cc1 | 20 µM | 0.003 µM | 0.8 µM | –
CC1(C)Cc2c(-c3ccccc3)c(-c3ccc(Cl)cc3)c(CC(=O)O)n2C1 [LICOFELONE] | 0.189 µM | 0.2 µM | – | inhibition at 30 µM (MONO-MAC-6 [9]): 56%
COc1ccc(-c2ssc(=O)c2-c2ccc(OC)cc2)cc1 | > 50 µM | 0.0003 µM | 1 µM | –
CC(Cc1ccc(O)c(O)c1)C(C)Cc1ccc(O)c(O)c1 (stereo not drawn) [NORDIHYDROGUAIARETIC ACID] | 1 µM | 50 µM | > 50 µM | –
Clc1ccc(-c2cnsc2-c2ccc(Cl)cc2)cc1 | – | 0.1 µM | 4 µM | –
